From ChEMBL document CHEMBL1153873, “Synthesis, antiarrhythmic and anticoagulant activities of novel thiazolo derivatives from methyl 2-(thiazol-2-ylcarbamoyl)acetate” (Eur J Med Chem, 2009) come the findings set out here.

The species entered for data set [1] is Homo sapiens. The data set can be described thus: Stimulation of antithrombin-3-induced inhibition of human alpha-thrombin at 0.2 to 2000 ug/mL.
Data set [2] is filed under the species Oryctolagus cuniculus. The data set can be described thus: Stimulation of antithrombin-3-induced inhibition of alpha-thrombin in rabbit plasma assessed as [125I]-thrombin-antithrombin-3 complex formation by SDS-PAGE and autoradiography. It counts as cell-free.
Data set [3] can be described thus: Toxicity in rat. The following applies: in vivo. It counts as organism-based.
Data set [4] is filed under the species Oryctolagus cuniculus. Briefly: Stimulation of heparin cofactor-2-induced inhibition of alpha-thrombin in rabbit plasma assessed as [125I]-thrombin-heparin cofactor-2 complex formation by SDS-PAGE and autoradiography. It counts as cell-free.
In a further data set the test system is Rattus norvegicus. The data set can be described thus: Antiarrhythmic activity in Ivanovas rat assessed as increase LD100 at 5 mg/kg, iv administered 5 mins before aconitine infusion. It is filed as functional, Heart.
In data set [5] the test system is Oryctolagus cuniculus. The data set can be described thus: Effect on blood pressure in New Zealand rabbit assessed arterial blood pressure at 1 mg/kg, iv after 2 hrs. It is filed as functional.
Data set [6] concerns Oryctolagus cuniculus. Briefly: Anticoagulant activity in New Zealand rabbit assessed as increase in activated partial thromboplastin time at 1 mg/kg, po after 8 hrs. It counts as functional, organism-based. The arrangement: dose 1 mg/kg.
Data set [7] concerns Oryctolagus cuniculus. Briefly: Anticoagulant activity in New Zealand rabbit assessed as increase in activated partial thromboplastin time at 1 mg/kg, iv relative to untreated control. It is filed as functional.
The subject of data set [8] is Plasma. Briefly: Anticoagulant activity in rabbit plasma assessed as increase in activated partial thromboplastin time. The following applies: Oryctolagus cuniculus. It counts as functional, cell-free.
The subject of data set [9] is Oryctolagus cuniculus. Briefly: Antithrombotic effect in New Zealand rabbit assessed as incidence of complete arterial occlusion at 3 mg/kg, po relative to control. It counts as functional.
The test system of data set [10] is Oryctolagus cuniculus. Briefly: Increase in bleeding time in New Zealand rabbit at 1 mg/kg, po relative to control. It counts as organism-based. Details: dose 1 mg/kg, route oral. The following applies: in vivo.
For data set [11], the system named is Oryctolagus cuniculus. Briefly: Anticoagulant activity in New Zealand rabbit assessed as increase in activated partial thromboplastin time at 1 mg/kg, iv after 120 mins. It is filed as functional, organism-based. The arrangement: dose 1 mg/kg.
Data set [12] deals with Oryctolagus cuniculus. The data set can be described thus: Antithrombotic effect in New Zealand rabbit assessed as time duration to occlusion at 3 mg/kg, po relative to control. It is filed as functional.
In data set [13] the test system is Plasma. Briefly: Anticoagulant activity in human plasma assessed as increase in activated partial thromboplastin time. It is filed as functional, cell-free.
The species named for data set [14] is Homo sapiens. The data set can be described thus: Stimulation of heparin cofactor-2-induced inhibition of human alpha-thrombin.
The test system of data set [15] is Oryctolagus cuniculus. The data set can be described thus: Anticoagulant activity in New Zealand rabbit assessed as increase in activated partial thromboplastin time at 1 mg/kg, po after 4 hrs relative to untreated control. It counts as functional.

Active and inactive are the calls of the source. The calls are words filed in the database; no cut-off is given here.

For the compound `O=C(CC(=O)Nc1nccs1)NNC(=S)[S-].[K+]` [HYDRAZINECARBODITHIONIC ACID POTASSIUM SALT], the result in the data set filed under Homo sapiens [1] and in the data set listed under Oryctolagus cuniculus [2] was inactive. In data set [3], the median lethal dose (LD50) was determined as 723 mg/kg. Also, the result in the data set listed under Oryctolagus cuniculus [4] was Active. In addition, the Activity in the data set with Rattus norvegicus was determined as 90.15%.
As for `CCOC(=O)c1nn(-c2ccc(Br)cc2)/c(=N/NC(=O)CC(=O)Nc2nccs2)s1`, the outcome in the data set listed under Homo sapiens [1] and in the data set listed under Oryctolagus cuniculus [2] was inactive. For the same compound, the median lethal dose (LD50) in [3] amounted to 342 mg/kg. Moreover, the outcome in the data set listed under Oryctolagus cuniculus [4] was Active. Also, the Activity with Rattus norvegicus is 80.1%.
`O=C(CC(=O)Nn1c(=O)c2cc3c(=O)n(NC(=O)CC(=O)Nc4nccs4)c(=O)c3cc2c1=O)Nc1nccs1`: the Activity in the data set with Oryctolagus cuniculus [5] is 68.12 mmHg; with Plasma [8], “Dose-dependent effect”; in the data set with Oryctolagus cuniculus [9], 42.85%; in the data set with Plasma [13], “Dose-dependent effect”; with Rattus norvegicus it was 86%. The result in the data set filed under Homo sapiens [1] and in the data set listed under Oryctolagus cuniculus [2] was inactive. In addition, the result in the data set on Oryctolagus cuniculus [6], with Oryctolagus cuniculus [11] and in the data set filed under Oryctolagus cuniculus [4] was Active. The “fold change (FC)” value with Oryctolagus cuniculus [7] is given as 4; in the data set with Oryctolagus cuniculus [10], 3.28; in the data set on Oryctolagus cuniculus [12] it was 10; in the data set on Oryctolagus cuniculus [15], 2. The compound further returned an LD50 in data set [3] of 336 mg/kg. In addition, the inhibition entry in the data set filed under Homo sapiens [14] was “Active”.
On to `COC(=O)/C(C(=O)Nc1nccs1)=C1/SCC(=O)N1c1ccccc1`, for which the outcome in the data set listed under Homo sapiens [1] and in the data set listed under Oryctolagus cuniculus [2] was inactive. The LD50 in data set [3] amounted to 444 mg/kg. Also, in the data set filed under Oryctolagus cuniculus [4], the result was Active. Also, in the data set on Rattus norvegicus, the Activity is 83%.
Regarding `O=C(CC(=O)NN1C(=O)c2c(Cl)c(Cl)c(Cl)c(Cl)c2C1=O)Nc1nccs1`, the result in the data set filed under Homo sapiens [1] and in the data set filed under Oryctolagus cuniculus [2] was inactive. This compound displayed an LD50 in [3] of 443 mg/kg. Moreover, in the data set listed under Oryctolagus cuniculus [4], the result was Active. Besides, the Activity in the data set with Rattus norvegicus is on record as 87.1%.
In the case of `COC(=O)/C(C(=O)Nc1nccs1)=C(/S)Nc1ccccc1`, the outcome in the data set listed under Homo sapiens [1] and in the data set filed under Oryctolagus cuniculus [2] was inactive. The LD50 in data set [3] was found to be 543 mg/kg. Further, in the data set listed under Oryctolagus cuniculus [4], the outcome was Active. The Activity in the data set on Rattus norvegicus was found to be 80.2%.
With `O=C(CC(=O)Nn1c(-c2ccccc2)csc1=S)Nc1nccs1`, the result in the data set listed under Homo sapiens [1] and in the data set listed under Oryctolagus cuniculus [2] was inactive. In addition, the LD50 in [3] is 292 mg/kg. The result in the data set listed under Oryctolagus cuniculus [4] was Active. The Activity in the data set with Rattus norvegicus was found to be 90.6%.
`O=C(CC(=O)NN1C(=O)c2ccc3c4c(ccc(c24)C1=O)C(=O)N(NC(=O)CC(=O)Nc1nccs1)C3=O)Nc1nccs1`: the Activity in the data set on Oryctolagus cuniculus [5] is 67.4 mmHg; with Plasma [8], “Dose-dependent effect”; in the data set with Oryctolagus cuniculus [9], 24.57%; in the data set with Plasma [13] it was “Dose-dependent effect”; in the data set with Rattus norvegicus it was 85%. Besides, the result in the data set filed under Homo sapiens [1] and in the data set listed under Oryctolagus cuniculus [2] was inactive. Further, the result in the data set on Oryctolagus cuniculus [6], in the data set on Oryctolagus cuniculus [11] and in the data set listed under Oryctolagus cuniculus [4] was Active. The “fold change (FC)” value was 7 with Oryctolagus cuniculus [7], 4.33 in the data set with Oryctolagus cuniculus [10], 12 in the data set with Oryctolagus cuniculus [12] and 3 in the data set on Oryctolagus cuniculus [15]. Besides, the 50% lethal dose (LD50) in data set [3] was determined as 445 mg/kg. Moreover, the inhibition entry in the data set filed under Homo sapiens [14] is “Active”.
For `COC(=O)/C(C(=O)Nc1nccs1)=C1/SC(C(C)=O)=NN1c1ccc(S(N)(=O)=O)cc1`, the outcome in the data set filed under Homo sapiens [1] and in the data set listed under Oryctolagus cuniculus [2] was inactive. Further, the 50% lethal dose (LD50) in data set [3] turned out to be 456 mg/kg. Also, in the data set filed under Oryctolagus cuniculus [4], the result was Active. The Activity in the data set with Rattus norvegicus is reported as 90.9%.
As for `NNC(=O)CC(=O)Nc1nccs1`, the result in the data set filed under Homo sapiens [1] and in the data set listed under Oryctolagus cuniculus [2] was inactive. Moreover, in data set [3], the LD50 is 736 mg/kg. The outcome in the data set filed under Oryctolagus cuniculus [4] was Active. Further, the Activity in the data set on Rattus norvegicus stood at 87.5%.
Consider `CC(=O)c1nn(-c2ccc(S(N)(=O)=O)cc2)/c(=N/NC(=O)CC(=O)Nc2nccs2)s1`, for which the outcome in the data set listed under Homo sapiens [1] and in the data set filed under Oryctolagus cuniculus [2] was inactive. The 50% lethal dose (LD50) in [3] amounted to 546 mg/kg. For the same compound, in the data set listed under Oryctolagus cuniculus [4], the result was Active. The Activity in the data set on Rattus norvegicus is listed as 85%.
Regarding `CCOC(=O)C1=NN(c2ccc(Cl)cc2)/C(=C(/C(=O)Nc2nccs2)C(=O)OC)S1`, the outcome in the data set filed under Homo sapiens [1] and in the data set filed under Oryctolagus cuniculus [2] was inactive. For the same compound, the LD50 in data set [3] turned out to be 435 mg/kg. In the data set filed under Oryctolagus cuniculus [4], the outcome was Active. In the data set on Rattus norvegicus, the Activity was found to be 84%.
For the compound `COC(=O)/C(C(=O)Nc1nccs1)=C1/SC=C(c2ccccc2)N1c1ccccc1`, the result in the data set listed under Homo sapiens [1] and in the data set filed under Oryctolagus cuniculus [2] was inactive. Moreover, the median lethal dose (LD50) in data set [3] is 724 mg/kg. In the data set listed under Oryctolagus cuniculus [4], the outcome was Active. Besides, the Activity in the data set with Rattus norvegicus is on record as 88%.
As for `COC(=O)/C(C(=O)Nc1nccs1)=C1/SC(C(C)=O)=NN1c1ccc(S(=O)(=O)N2C(=O)c3c(Cl)c(Cl)c(Cl)c(Cl)c3C2=O)cc1`, the result in the data set filed under Homo sapiens [1] and in the data set listed under Oryctolagus cuniculus [2] was inactive. Besides, the LD50 in data set [3] amounted to 564 mg/kg. Further, the outcome in the data set listed under Oryctolagus cuniculus [4] was Active. The Activity in the data set on Rattus norvegicus amounted to 88%.
As to `COC(=O)/C(C(=O)Nc1nccs1)=C1/SC=C(C)N1c1ccccc1`, the result in the data set listed under Homo sapiens [1] and in the data set filed under Oryctolagus cuniculus [2] was inactive. The median lethal dose (LD50) in data set [3] was found to be 434 mg/kg. The outcome in the data set listed under Oryctolagus cuniculus [4] was Active. Besides, in the data set on Rattus norvegicus, the Activity is on record as 90.3%.
Turning to `COC(=O)/C(C(=O)Nc1nccs1)=C1/SC(C(C)=O)=C(C)N1c1ccccc1`, the outcome in the data set filed under Homo sapiens [1] and in the data set listed under Oryctolagus cuniculus [2] was inactive. The compound further gave an LD50 in data set [3] of 674 mg/kg. The outcome in the data set filed under Oryctolagus cuniculus [4] was Active. Also, the Activity in the data set on Rattus norvegicus is 88.8%.
